According to patent US20220081433A1, “CYCLIC SULFAMIDE COMPOUNDS FOR TREATMENT OF HBV” (Assembly Biosciences, Inc., priority 2018, published 2022):

Tested on: HBV
Assay: Activity of test compounds on viral production from HepAD38 cells (viral load by qPCR of HBV core sequence)
Assay type: cell-based
Conditions: Hepatitis B virus, 120 h, 5 days, supernatant HBV DNA by qPCR vs DMSO control, read-out: viral load lowering EC50 (Activity)
Protocol: Assay Measuring Activity of Test Compounds on Viral Production from HepAD38 Cells
HepAD38 cells grown in a T-150 flask (Corning, cat#: 430825) with Growth Medium (DMEM/F12 (1:1) (Hyclone, cat#: SH30023.02), 1× Pen/Strep (Invitrogen, cat#: 15140-122), 10% FBS (Tissue Culture Biologics, cat#: 101), 250 μg/mL G418 (Alfa Aesar, cat#: J62671), 1 μg/mL Tetracycline (Teknova, cat#: T3320)) were detached with 0.25% trypsin-EDTA (Invitrogen, cat#: 25200-056). Tetracycline-free treatment medium (15 mL DMEM/F12 (1:1) 1×Pen/step, with 2% FBS, Tet-system approved (Clontech, cat#: 631106) were then added to mix, transferred into a 50 ml conical tube (Falcon, cat#: 21008-918) and spun at 1300 rpm for 5 min. Pelleted cells were then re-suspended/washed with 50 mL of 1×DPBS (Invitrogen, cat#: 14190-136) 2 times and 50 mL treatment medium twice. HepAD38 cells were then re-suspended with 10 mL of treatment medium, syringed and counted. Wells of 96-well clear bottom TC plate (Corning, cat#: 3904) were seeded at 50,000 cells/well in 180 μL of treatment medium, and 20 μL of either 10% DMSO (Sigma, cat#: D4540) as controls or a 10× solution of test compounds in 10% DMSO in treatment media was added for a final compound concentration starting at 10 μM, and plates were incubated in 5% CO2 incubator at 37° C. for 5 days.
Subsequently viral load production was assayed by quantitative PCR (qPCR) of the HBV core sequence. PCR reaction mixture containing forward primers HBV-f 5′-CTGTGCCTTGGGTGGCTTT-3′ (IDT DNA), Reverse primers HBV-r 5′-[…]-3′ (IDT DNA), Fluorescent TaqMan™ Probes HBV-probe 5′-FAM/AGCTCCAAA/ZEN/[…]/3IABkFQ-3′ (IDT DNA), 10 μL/well of PerfeCTa® qPCR ToughMix® (Quanta Biosciences, Cat#: 95114-05K), and 6 μL/well of DEPC water (Alfa Aesar, cat#: J62087) was prepared. Four μL of supernatant was added to 16 μL of the reaction mixture in a qPCR plate (Applied Biosytems, Cat#: 4309849), sealed with a film (Applied Biosystems, Cat#: 4311971), centrifuged for a few seconds, and subsequently run on an Applied Biosystems VIIA7. The PCR mixture was incubated at 45° C. for 5 min, then 95° C. for 10 min, followed by 40 cycles of 10 seconds at 95° C. and 20 seconds at 60° C. Viral load was quantified against known HBV DNA standards by using ViiA™ 7 Software. Viral load in the supernatant from wells with treated cells were compared against viral load in supernatant from DMSO control wells (≥ 3 per plate). Cell viability assay was performed with CellTiter-Glo Luminescent Cell Viability Assay (Promega, cat#: G7573) with modification. Mixed appropriate amount of CellTiter-Glo (CTG) 1×DPBS in a 1:1 ratio, added 100 uL of the mixture to each well followed completely removal of all supernatant in each well without touching cell surface. Incubated the plate at room temperature for 10 min on an orbital shaker, and then read the plate with a plate reader (TECAN M1000 or Envision). EC50 or CC50 values were calculated through curve-fitting of the four-parameter nonlinear-logistic-regression model (GraphPad Prism or Dotmatics). CC50 values were all >10 μM.

Structure (SMILES) | EC50 [nM]
Cc1cc(-c2cccc(C3CC(C(=O)Nc4ccc(F)c(Cl)c4)N(C)S(=O)(=O)N3)c2)ccc1F (centres unmarked) [Example 10, N-(3-Chloro-4-fluorophenyl)-5-(4′-fluoro-3′-methyl-[1,1′-biphenyl]-3-yl)-2-methyl-1,2,6-thiadiazinane-3-carboxamide 1,1-dioxide] | < 1000
CN1C(C(=O)Nc2ccc(F)c(Cl)c2)CC(c2cccc(C3=CCOCC3)c2)NS1(=O)=O (centres unmarked) [Example 11, N-(3-Chloro-4-fluorophenyl)-5-(3-(3,6-dihydro-2H-pyran-4-yl)phenyl)-2-methyl-1,2,6-thiadiazinane-3-carboxamide 1,1-dioxide] | < 1000
COC(=O)c1cccc(-c2cccc(C3CC(C(=O)Nc4ccc(F)c(Cl)c4)N(C)S(=O)(=O)N3)c2)c1 (centres unmarked) [Example 12, Methyl 3′-(5-((3-Chloro-4-fluorophenyl)carbamoyl)-6-methyl-1,1-dioxido-1,2,6-thiadiazinan-3-yl)-[1,1′-biphenyl]-3-carboxylate] | < 1000
CN1C(C(=O)Nc2ccc(F)c(Cl)c2)CC(c2cccc(C3CC3)c2)NS1(=O)=O (centres unmarked) [Example 13, N-(3-Chloro-4-fluorophenyl)-5-(3-cyclopropylphenyl)-2-methyl-1,2,6-thiadiazinane-3-carboxamide 1,1-dioxide] | < 1000
COc1ccc(-c2cccc(C3CC(C(=O)Nc4ccc(F)c(Cl)c4)N(C)S(=O)(=O)N3)c2)cc1C(F)(F)F (centres unmarked) [Example 14, N-(3-Chloro-4-fluorophenyl)-5-(4′-methoxy-3′-(trifluoromethyl)-[1,1′-biphenyl]-3-yl)-2-methyl-1,2,6-thiadiazinane-3-carboxamide 1,1-dioxide] | 1000 to 5000
COC(=O)Cc1ccc(-c2cccc(C3CC(C(=O)Nc4ccc(F)c(Cl)c4)N(C)S(=O)(=O)N3)c2)cc1 (centres unmarked) [Example 15, Methyl 2-(3′-(5-((3-chloro-4-fluorophenyl)carbamoyl)-6-methyl-1,1-dioxido-1,2,6-thiadiazinan-3-yl)-[1,1′-biphenyl]-4-yl)acetate] | < 1000
Cc1nn(C)cc1-c1cccc(C2CC(C(=O)Nc3ccc(F)c(Cl)c3)N(C)S(=O)(=O)N2)c1 (centres unmarked) [Example 16, N-(3-Chloro-4-fluorophenyl)-5-(3-(1,3-dimethyl-1H-pyrazol-4-yl)phenyl)-2-methyl-1,2,6-thiadiazinane-3-carboxamide 1,1-dioxide] | < 1000
CN1C(C(=O)Nc2ccc(F)c(Cl)c2)CC(c2cccc(-c3cnn(CC(=O)O)c3)c2)NS1(=O)=O (centres unmarked) [Example 17, 2-(4-(3-(5-((3-Chloro-4-fluorophenyl)carbamoyl)-6-methyl-1,1-dioxido-1,2,6-thiadiazinan-3-yl)phenyl)-1H-pyrazol-1-yl)acetic acid] | 5000 to 10000
CN1CC=C(c2cccc(C3CC(C(=O)Nc4ccc(F)c(Cl)c4)N(C)S(=O)(=O)N3)c2)CC1 (centres unmarked) [Example 18, N-(3-Chloro-4-fluorophenyl)-2-methyl-5-(3-(1-methyl-1,2,3,6-tetrahydropyridin-4-yl)phenyl)-1,2,6-thiadiazinane-3-carboxamide 1,1-dioxide] | < 1000
CN1C(C(=O)Nc2ccc(F)c(Cl)c2)CC(c2cccc(-c3cccc(C(=O)O)c3)c2)NS1(=O)=O (centres unmarked) [Example 19, 3′-(5-((3-Chloro-4-fluorophenyl)carbamoyl)-6-methyl-1,1-dioxido-1,2,6-thiadiazinan-3-yl)-[1,1′-biphenyl]-3-carboxylic acid] | 1000 to 5000
CN1C(C(=O)Nc2ccc(F)c(Cl)c2)CC(c2cccc(-c3cncn3C)c2)NS1(=O)=O (centres unmarked) [Example 20, N-(3-Chloro-4-fluorophenyl)-2-methyl-5-(3-(1-methyl-1H-imidazol-5-yl)phenyl)-1,2,6-thiadiazinane-3-carboxamide 1,1-dioxide] | < 1000
CN1C(C(=O)Nc2ccc(F)c(Cl)c2)CC(c2cccc(-c3ccc(C(F)(F)F)cc3)c2)NS1(=O)=O (centres unmarked) [Example 21, N-(3-Chloro-4-fluorophenyl)-2-methyl-5-(4′-(trifluoromethyl)-[1,1′-biphenyl]-3-yl)-1,2,6-thiadiazinane-3-carboxamide 1,1-dioxide] | < 1000
CN1C(C(=O)Nc2ccc(F)c(Cl)c2)CC(c2cccc(-c3ccccn3)c2)NS1(=O)=O (centres unmarked) [Example 22, N-(3-Chloro-4-fluorophenyl)-2-methyl-5-(3-(pyridin-2-yl)phenyl)-1,2,6-thiadiazinane-3-carboxamide 1,1-dioxide] | < 1000
CN1C(C(=O)Nc2ccc(F)c(Cl)c2)CC(c2cccc(N3CCCCC3)c2)NS1(=O)=O (centres unmarked) [Example 23, N-(3-Chloro-4-fluorophenyl)-2-methyl-5-(3-(piperidin-1-yl)phenyl)-1,2,6-thiadiazinane-3-carboxamide 1,1-dioxide] | < 1000
CN1C(C(=O)Nc2ccc(F)c(Cl)c2)CC(c2cccc(N3CCOCC3)c2)NS1(=O)=O (centres unmarked) [Example 24, N-(3-Chloro-4-fluorophenyl)-2-methyl-5-(3-morpholinophenyl)-1,2,6-thiadiazinane-3-carboxamide 1,1-dioxide] | < 1000
CN1C(C(=O)Nc2ccc(F)c(Cl)c2)CC(c2cccc(-n3cccn3)c2)NS1(=O)=O (centres unmarked) [Example 26, 5-(3-(1H-Pyrazol-1-yl)phenyl)-N-(3-chloro-4-fluorophenyl)-2-methyl-1,2,6-thiadiazinane-3-carboxamide 1,1-dioxide] | < 1000
Cc1nnc(C2CC(C(=O)Nc3ccc(F)c(Cl)c3)N(C)S(=O)(=O)N2)o1 (centres unmarked) [Example 29, N-(3-Chloro-4-fluorophenyl)-2-methyl-5-(5-methyl-1,3,4-oxadiazol-2-yl)-1,2,6-thiadiazinane-3-carboxamide 1,1-dioxide] | 1000 to 5000
Cc1nnc(C2CC(C(=O)Nc3ccc(F)c(Cl)c3)N(C)S(=O)(=O)N2)n1C (centres unmarked) [Example 32, N-(3-Chloro-4-fluorophenyl)-5-(4,5-dimethyl-4H-1,2,4-triazol-3-yl)-2-methyl-1,2,6-thiadiazinane-3-carboxamide 1,1-dioxide] | 5000 to 10000
CN1C(C(=O)Nc2ccc(F)c(Cl)c2)CC(c2nnc(Cc3ccccc3)n2C)NS1(=O)=O (centres unmarked) [Example 33, 5-(5-Benzyl-4-methyl-4H-1,2,4-triazol-3-yl)-N-(3-chloro-4-fluorophenyl)-2-methyl-1,2,6-thiadiazinane-3-carboxamide 1,1-dioxide] | 5000 to 10000
CN1C(C(=O)Nc2ccc(F)c(Cl)c2)CC(c2ncc(-c3ccccc3)n2C)NS1(=O)=O (centres unmarked) [Example 34, N-(3-Chloro-4-fluorophenyl)-2-methyl-5-(1-methyl-5-phenyl-1H-imidazol-2-yl)-1,2,6-thiadiazinane-3-carboxamide 1,1-dioxide] | 5000 to 10000
CN1C(C(=O)Nc2ccc(F)c(Cl)c2)CC(c2ccc(-c3cn(C)cn3)o2)NS1(=O)=O (centres unmarked) [Example 36, N-(3-Chloro-4-fluorophenyl)-2-methyl-5-(5-(1-methyl-1H-imidazol-4-yl)furan-2-yl)-1,2,6-thiadiazinane-3-carboxamide 1,1-dioxide] | < 1000
CN1C(C(=O)Nc2ccc(F)c(Cl)c2)CC(c2n[nH]c(=O)n2-c2ccccc2)NS1(=O)=O (centres unmarked) [Example 37, N-(3-Chloro-4-fluorophenyl)-2-methyl-5-(5-oxo-4-phenyl-4,5-dihydro-1H-1,2,4-triazol-3-yl)-1,2,6-thiadiazinane-3-carboxamide 1,1-dioxide] | 1000 to 5000
CN1C(C(=O)Nc2ccc(F)c(Cl)c2)CC(c2n[nH]c(=O)n2Cc2ccccc2)NS1(=O)=O (centres unmarked) [Example 38, 5-(4-Benzyl-5-oxo-4,5-dihydro-1H-1,2,4-triazol-3-yl)-N-(3-chloro-4-fluorophenyl)-2-methyl-1,2,6-thiadiazinane-3-carboxamide 1,1-dioxide] | 5000 to 10000
